System: lymphoblasts from autistic donors with mitochondrial dysfunction (A)
Details: 500 μM copper (I) glycinate, measured by oxygen consumption rate, vs cells without the copper (I) complex, FIG. 17 panel B
Procedure: ATP-linked respiration, proton leak, maximal respiratory capacity, and reserve capacity were determined as measured by the cells' oxygen consumption rate.

NCC(=O)[O-].[Cu+] [copper (I) glycinate]
proton leak: significantly reduced proton leak

Source: patent US10596193B2, “Copper (I) complexes with glycine, pyruvate, and succinate” (C LAB PHARMA INTERNATIONAL, S.A., priority 2013, dated 2020)
